Experiments:
PPARγ = target: T1, PPARγ (Homo sapiens, UniProt P37231); assay: Gel-based screening for PPARγ binders using probe 24c-Cy3; format: binding; parameters: purchased Cayman Chemical; settings: 20 μM, 1 h, then 10 μM 24c-Cy3; 19a named first, 28 second
T1 sequence (P37231 1-505): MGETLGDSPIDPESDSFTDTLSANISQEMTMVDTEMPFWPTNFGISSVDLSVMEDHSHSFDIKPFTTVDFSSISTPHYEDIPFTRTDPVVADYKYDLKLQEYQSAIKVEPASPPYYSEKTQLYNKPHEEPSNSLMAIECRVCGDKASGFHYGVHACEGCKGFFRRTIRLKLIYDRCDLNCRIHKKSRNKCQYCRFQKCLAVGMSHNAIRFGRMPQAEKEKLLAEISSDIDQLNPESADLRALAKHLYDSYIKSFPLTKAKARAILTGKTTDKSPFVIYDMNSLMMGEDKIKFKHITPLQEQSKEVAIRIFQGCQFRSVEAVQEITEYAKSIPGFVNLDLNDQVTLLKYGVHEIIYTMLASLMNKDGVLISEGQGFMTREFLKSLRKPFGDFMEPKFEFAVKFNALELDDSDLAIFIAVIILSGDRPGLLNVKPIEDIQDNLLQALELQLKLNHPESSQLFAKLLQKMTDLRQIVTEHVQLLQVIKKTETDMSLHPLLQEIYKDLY
Description: (c) Gel-based competitive screening of DEP and analogues as PPARγ antagonists against recombinant human enzyme (top). hPPARγ was treated with each compound (20 μM) for 1 h followed by treatment with 24c-Cy3 (10 μM) as probe. Quantification of fluorescence intensity in the competitive screening for PPARγ antagonists (bottom; values±s.d. are shown; n=3).
Briefly, recombinant human PPARγ was pretreated with compounds at 20 μM concentration followed by the probe 24c-Cy3.
Samples were then treated with 10 μM 24c-Cy3 (0.5 μl of 25 × stock in DMSO) for 1 h at room temperature in the dark. SDS–PAGE reducing loading buffer (4 ×) was added and proteins were separated using a 10% SDS–PAGE gel. Gels were visualized at 625 nm using a Hitachi FMBIO II Multi-View fluorescence scanner, then stained using silver staining. Images were quantified with ImageJ.

MCF7 cells = assay: Caspase activation (FITC-VAD-FMK), Annexin V and propidium iodide staining; format: cell-based, human; settings: 20 μM, 8 h
Description: We began our biological investigations by assaying the cytotoxicity of natural deoxyelephantopin (DEP) and its unnatural analogues in four different cancer cell lines (Fig. 5a, Supplementary Figs 6–8).
Figure 5 Assessing the cytotoxicity of deoxyelephantopin (DEP) and analogues. (a) Cell viability measurements in four different cancer cell lines. Cells were treated with compounds for 3 days, the nuclei were stained with DAPI and counted (EC50 values±s.d. shown; n=3). **P<0.005 and ***P<0.0005 by two-sided Student's t-test. (b) Detection of caspase activation and apoptosis in MCF7 cells using FITC-VAD-FMK fluorescent probe (top) or Annexin V staining (bottom). The cells were treated with 1 μM staurosporine (positive control) or 20 μM deoxyelephantopin for 8 h. Confocal microscopy images are shown. EC50, effector concentration for half-maximum response. Scale bars, 30μm. […]
Biological materials. […] Protein concentration was determined using the Bradford assay (Bio-Rad).
Cell culture and preparation of lysates. […] Cells were lysed by sonication to form cell lysates and protein concentration was determined using the Bradford […]
’ cells/mL and HeLa: 1 ’ cells/mL) in a 96-well plate and allowed to attach overnight. […] Cells were imaged using a SpectraMax i3 plate reader equipped with a SpectraMax MiniMax imaging cytometer (Molecular Devices). […]
Caspase activity labeling for fluorescence cell imaging. […]

Row | rank as covalent binder to PPARγ (competition of 24c-Cy3 labelling) (PPARγ) | Compound | cause of cell death (FITC-VAD-FMK, Annexin-V-FLUOS staining) (MCF7 cells) | necrotic death (propidium iodide staining) (MCF7 cells)
1 | most effective covalent binder | C=C(C)C(=O)O[C@H]1CC2=C[C@H](C/C=C\[C@H]3OC(=O)C(=C)[C@H]13)OC2=O [19a] | – | –
2 | – | C=C(C)C(=O)O[C@H]1CC2=C[C@@H](C/C(C)=C/[C@H]3OC(=O)C(=C)[C@H]13)OC2=O [deoxyelephantopin] | caspase-mediated apoptosis | did not indicate any significant necrotic death

Reference: PMC4992173, “Divergent synthesis and identification of the cellular targets of deoxyelephantopins” (Nature Communications, 2016)
